Data published in patent US9920063B2, “Melampomagnolide B derivatives” (Board of Trustees of the University of Arkansas, priority 2013, dated 2018).
Like-named read-outs stand apart in the source and are kept apart here.

Tests used:
NCI-H23 = conditions: NCI-H23

C=C1C(=O)O[C@H]2[C@H]1CC/C(COC(=O)c1cc3ccccc3[nH]1)=C\CC[C@@]1(C)O[C@@H]21 [BS-1-28]
Percent Growth (NCI-H23; Log10 Concentration −5.0): −67%
Percent Growth (NCI-H23; Log10 Concentration −6.0): 85%
Percent Growth (NCI-H23; Log10 Concentration −7.0): 96%
Percent Growth (NCI-H23; Log10 Concentration −8.0): 96%
GI50 (NCI-H23; NCI five dose): 1.69 µM
TGI (NCI-H23; NCI five dose): 3.62E−6
CC50 (CAKI-1): 4.82 µM
Percent Growth (CAKI-1; CAKI-1, Log10 Concentration −4.0): −100%
Percent Growth (CAKI-1; CAKI-1, Log10 Concentration −5.0): −99%
Percent Growth (CAKI-1; CAKI-1, Log10 Concentration −6.0): 55%
Percent Growth (CAKI-1; CAKI-1, Log10 Concentration −7.0): 90%
Percent Growth (CAKI-1; CAKI-1, Log10 Concentration −8.0): 86%
GI50 (CAKI-1; CAKI-1, NCI five dose): 1.08 µM
TGI (CAKI-1; CAKI-1, NCI five dose): 2.18E−6
CC50 (A549/ATCC): 59.3 µM
Percent Growth (A549/ATCC; A549/ATCC, Log10 Concentration −4.0): −53%
Percent Growth (A549/ATCC; A549/ATCC, Log10 Concentration −5.0): −41%
Percent Growth (A549/ATCC; A549/ATCC, Log10 Concentration −6.0): 92%
Percent Growth (A549/ATCC; A549/ATCC, Log10 Concentration −7.0): 96%
Percent Growth (A549/ATCC; A549/ATCC, Log10 Concentration −8.0): 91%
GI50 (A549/ATCC; A549/ATCC, NCI five dose): 2.06 µM
TGI (A549/ATCC; A549/ATCC, NCI five dose): 4.90E−6
CC50 (LOX IMVI): 0.732 µM
Percent Growth (LOX IMVI; LOX IMVI, Log10 Concentration −4.0): −81%
Percent Growth (LOX IMVI; LOX IMVI, Log10 Concentration −5.0): −88%
Percent Growth (LOX IMVI; LOX IMVI, Log10 Concentration −6.0): −72%
Percent Growth (LOX IMVI; LOX IMVI, Log10 Concentration −7.0): 93%
Percent Growth (LOX IMVI; LOX IMVI, Log10 Concentration −8.0): 93%
GI50 (LOX IMVI; LOX IMVI, NCI five dose): 0.182 µM
TGI (LOX IMVI; LOX IMVI, NCI five dose): 3.65E−7
CC50 (NCI-H322M): 6.47 µM
Percent Growth (NCI-H322M; NCI-H322M, Log10 Concentration −4.0): −89%
Percent Growth (NCI-H322M; NCI-H322M, Log10 Concentration −5.0): −82%
Percent Growth (NCI-H322M; NCI-H322M, Log10 Concentration −6.0): 88%
Percent Growth (NCI-H322M; NCI-H322M, Log10 Concentration −7.0): 95%
Percent Growth (NCI-H322M; NCI-H322M, Log10 Concentration −8.0): 81%
GI50 (NCI-H322M; NCI-H322M, NCI five dose): 1.68 µM
TGI (NCI-H322M; NCI-H322M, NCI five dose): 3.29E−6
CC50 (SF-539): 6.53 µM
Percent Growth (SF-539; SF-539, Log10 Concentration −4.0): −91%
Percent Growth (SF-539; SF-539, Log10 Concentration −5.0): −91%
Percent Growth (SF-539; SF-539, Log10 Concentration −6.0): 70%
Percent Growth (SF-539; SF-539, Log10 Concentration −7.0): 93%
Percent Growth (SF-539; SF-539, Log10 Concentration −8.0): 90%
GI50 (SF-539; SF-539, NCI five dose): 1.32 µM
TGI (SF-539; SF-539, NCI five dose): 2.71E−4
CC50 (K-562): > 100 µM
Percent Growth (K-562; K-562, Log10 Concentration −4.0): −24%
Percent Growth (K-562; K-562, Log10 Concentration −5.0): −1%
Percent Growth (K-562; K-562, Log10 Concentration −6.0): 5%
Percent Growth (K-562; K-562, Log10 Concentration −7.0): 98%
Percent Growth (K-562; K-562, Log10 Concentration −8.0): 100%
GI50 (K-562; K-562, NCI five dose): 0.327 µM
TGI (K-562; K-562, NCI five dose): 5.79E−6
CC50 (NCI-H522): 6.72 µM
Percent Growth (NCI-H522; NCI-H522, Log10 Concentration −4.0): −72%
Percent Growth (NCI-H522; NCI-H522, Log10 Concentration −5.0): −69%
Percent Growth (NCI-H522; NCI-H522, Log10 Concentration −6.0): 43%
Percent Growth (NCI-H522; NCI-H522, Log10 Concentration −7.0): 104%
Percent Growth (NCI-H522; NCI-H522, Log10 Concentration −8.0): 83%
GI50 (NCI-H522; NCI-H522, NCI five dose): 0.757 µM
TGI (NCI-H522; NCI-H522, NCI five dose): 2.40E−6
CC50 (SR): > 100 µM
Percent Growth (SR; SR, Log10 Concentration −4.0): −39%
Percent Growth (SR; SR, Log10 Concentration −5.0): −28%
Percent Growth (SR; SR, Log10 Concentration −6.0): 53%
Percent Growth (SR; SR, Log10 Concentration −7.0): 98%
Percent Growth (SR; SR, Log10 Concentration −8.0): 162%
GI50 (SR; SR, NCI five dose): 1.08 µM
TGI (SR; SR, NCI five dose): 4.51E−6
